# From publication PMC10527105, “Chirality Matters: Fine-Tuning of Novel Monoamine Reuptake Inhibitors Selectivity through Manipulation of Stereochemistry” (Biomolecules, 2023)
# Like-named read-outs stand apart in the source and are kept apart here.
# Experiments:
# Type in all cases: cell-based
# [1] = biological target: T1, human serotonin transporter/SLC6A4 (SERT) (Homo sapiens, UniProt P31645); test: Cellular uptake experiments: [3H]-serotonin reuptake inhibition in transporter-expressing HEK293 cells
# T1 construct: expressed in transfected cells; host or cells: HEK293
# Procedure: (§1) Cell culture. Human embryonic kidney (HEK) 293 or SK-N-MC (human neuroblastoma) cells were grown in minimum essential medium with Earle’s salts and L-glutamine, 10% heat-inactivated fetal bovine serum, and 50 mg/L gentamicin. Cells were grown in 100- or 60-mm diameter tissue culture dishes (polystyrene, Falcon) at 37 °C under an atmosphere of 5% CO2/95% air. The human dopamine transporter/SLC6A3 (DAT), noradrenaline transporter/SLC6A2 (NET), or human serotonin transporter/SLC6A4 (SERT) cDNA was stably expressed using methods as described previously.
# (§2) Cellular uptake experiments. The transporter-expressing HEK293 cells were seeded in poly-D-lysine-coated 24-well plates (1 × 10^5 cells/well) and, one day later, each well was washed with 0.5 mL uptake buffer and incubated with 0.5 mL buffer containing various concentrations of the drugs. Uptake was started by the addition of [^3H]-dopamine, [^3H]-noradrenaline, or [^3H]-serotonin at a final concentration of 1 µM (specific activity 0.14 Ci/mmol) after 5 min of preincubation. After incubation for 2.5 min (SERT-cells: 5 min) at 25 °C, it was stopped by aspirating the uptake buffer and washing each well twice with 1 mL ice-cold buffer. Nonspecific uptake was determined in the presence of 10 µM mazindol (DAT- and NET-cells) or 10 µM clomipramine (SERT-cells). The radioactivity remaining in each well was determined by incubating with 0.4 mL 1% sodium dodecyl sulphate and transferring this solution into scintillation vials containing 3 mL of scintillation cocktail (Ultima Gold MV, Packard, Dovners Grove, IL, USA). The uptake buffer consisted of (mmol/L): 4 Tris–HCl; 6.25 4-(2-hydroxyethyl)-1-piperazineethanesulfonic acid (HEPES); 120 NaCl; 5 KCl; 1.2 CaCl2; 1.2 MgSO4; 5.6 D-glucose; 0.5 ascorbic acid; pH 7.1.
# [2] = biological target: T2, human dopamine transporter/SLC6A3 (DAT) (Homo sapiens, UniProt Q01959); test: Cellular uptake experiments: [3H]-dopamine reuptake inhibition in transporter-expressing HEK293 cells; settings: for IC50: cells stably expressing DAT, [3H]-dopamine 1 µM, screening cut-off 50 µM; for activity on DAT (reuptake inhibition), in words: at 50 µM
# T2 construct: expressed in transfected cells; host or cells: HEK293
# Procedure: as §1, §2
# [3] = biological target: T3, noradrenaline transporter/SLC6A2 (NET) (Homo sapiens, UniProt P23975); test: Cellular uptake experiments: [3H]-noradrenaline reuptake inhibition in transporter-expressing HEK293 cells
# T3 construct: expressed in transfected cells; host or cells: HEK293
# Procedure: as §1, §2
# [4] = Reuptake Inhibition (IC50 ± SE, µM) SERT, cells stably expressing SERT; [3H]-serotonin 1 µM; screening cut-off 50 µM
# [5] = Reuptake Inhibition (IC50 ± SE, µM) DAT
# [6] = Reuptake Inhibition (IC50 ± SE, µM) NET, cells stably expressing NET; [3H]-noradrenaline 1 µM; screening cut-off 50 µM
# [7] = read-out: Reuptake Inhibition (IC50 ± SE, µM) SERT; cells stably expressing SERT; [3H]-serotonin 1 µM; screening cut-off 50 µM
# [8] = read-out: Reuptake Inhibition (IC50 ± SE, µM) NET; cells stably expressing NET; [3H]-noradrenaline 1 µM; screening cut-off 50 µM
# [9] = at 50 µM / tested concentration range
# [10] = cells stably expressing SERT; [3H]-serotonin 1 µM; screening cut-off 50 µM; read-out: Reuptake Inhibition (IC50 ± SE, µM) SERT
# [11] = read-out: Reuptake Inhibition (IC50 ± SE, µM) DAT
# [12] = cells stably expressing NET; [3H]-noradrenaline 1 µM; screening cut-off 50 µM; read-out: Reuptake Inhibition (IC50 ± SE, µM) NET
# T3 sequence (P23975 whole entry): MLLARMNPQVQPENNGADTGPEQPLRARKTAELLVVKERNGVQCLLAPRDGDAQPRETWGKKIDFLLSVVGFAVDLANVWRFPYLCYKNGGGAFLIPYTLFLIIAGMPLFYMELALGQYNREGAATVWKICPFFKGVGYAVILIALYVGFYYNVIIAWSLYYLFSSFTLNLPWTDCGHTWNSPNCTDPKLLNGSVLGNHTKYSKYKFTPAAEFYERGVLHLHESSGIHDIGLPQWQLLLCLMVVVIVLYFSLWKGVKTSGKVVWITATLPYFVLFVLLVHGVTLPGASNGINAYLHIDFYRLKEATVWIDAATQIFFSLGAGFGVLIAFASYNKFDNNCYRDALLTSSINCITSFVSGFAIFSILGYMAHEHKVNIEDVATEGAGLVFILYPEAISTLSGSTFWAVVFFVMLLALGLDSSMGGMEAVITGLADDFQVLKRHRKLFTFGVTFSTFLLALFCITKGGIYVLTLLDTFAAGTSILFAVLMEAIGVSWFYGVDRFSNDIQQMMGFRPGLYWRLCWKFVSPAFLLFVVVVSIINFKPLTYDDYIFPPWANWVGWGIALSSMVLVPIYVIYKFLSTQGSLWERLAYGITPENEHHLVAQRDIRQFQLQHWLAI
# T1 sequence (P31645 whole entry): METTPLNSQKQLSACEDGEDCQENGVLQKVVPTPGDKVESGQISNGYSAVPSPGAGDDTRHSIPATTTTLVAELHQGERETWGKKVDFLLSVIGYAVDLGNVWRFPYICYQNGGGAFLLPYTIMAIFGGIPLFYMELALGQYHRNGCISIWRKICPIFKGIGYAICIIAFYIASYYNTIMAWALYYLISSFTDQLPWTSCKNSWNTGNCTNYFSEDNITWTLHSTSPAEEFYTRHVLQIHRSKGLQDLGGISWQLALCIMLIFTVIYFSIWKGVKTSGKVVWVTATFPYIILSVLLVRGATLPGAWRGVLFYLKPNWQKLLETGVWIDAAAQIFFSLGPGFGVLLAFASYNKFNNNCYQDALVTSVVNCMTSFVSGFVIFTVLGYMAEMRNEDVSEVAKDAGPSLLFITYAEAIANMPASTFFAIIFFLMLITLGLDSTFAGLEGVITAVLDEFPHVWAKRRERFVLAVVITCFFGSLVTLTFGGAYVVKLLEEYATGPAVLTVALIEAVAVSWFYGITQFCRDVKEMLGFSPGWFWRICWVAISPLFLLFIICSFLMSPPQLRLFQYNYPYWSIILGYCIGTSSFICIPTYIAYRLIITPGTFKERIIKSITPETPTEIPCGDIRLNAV
# T2 sequence (Q01959 whole entry): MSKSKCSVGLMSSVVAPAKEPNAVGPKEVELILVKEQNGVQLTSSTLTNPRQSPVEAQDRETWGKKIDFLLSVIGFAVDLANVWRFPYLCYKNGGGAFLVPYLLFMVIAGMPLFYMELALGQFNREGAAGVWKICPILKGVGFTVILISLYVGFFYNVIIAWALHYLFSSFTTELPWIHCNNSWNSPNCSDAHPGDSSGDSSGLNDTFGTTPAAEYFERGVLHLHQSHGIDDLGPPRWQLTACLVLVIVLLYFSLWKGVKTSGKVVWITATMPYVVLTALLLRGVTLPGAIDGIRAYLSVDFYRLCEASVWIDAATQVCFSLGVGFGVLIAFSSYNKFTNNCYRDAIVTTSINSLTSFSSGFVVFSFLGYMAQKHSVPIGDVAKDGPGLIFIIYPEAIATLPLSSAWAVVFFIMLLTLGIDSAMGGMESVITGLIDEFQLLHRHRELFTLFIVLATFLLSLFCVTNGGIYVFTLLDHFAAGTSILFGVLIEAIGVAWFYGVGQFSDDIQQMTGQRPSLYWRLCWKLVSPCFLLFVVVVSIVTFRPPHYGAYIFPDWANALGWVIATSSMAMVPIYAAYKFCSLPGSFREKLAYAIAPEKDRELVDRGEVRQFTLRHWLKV
smiles,measurement,setting,value
"[O-][S+](Cc1cccs1)C(c1ccc(F)cc1)c1ccc(Cl)cc1 (stereo not drawn) [Compound 5u, 2-((((4-chlorophenyl)(4-fluorophenyl)methyl)sulfinyl)methyl)thiophene]",IC50,[1]; [4],> 50 µM
same,IC50,[2]; [5],4.5 ± 1.8 µM
same,IC50,[3]; [6],> 50 µM
"Cc1cccc([C@H](c2ccccc2)[S@+]([O-])Cc2cccs2)c1 [Compound 6m, (R,S)-2-(((phenyl(m-tolyl)methyl)sulfinyl)methyl)thiophene]",IC50,[1]; [4],> 50 µM
same,IC50,[2]; [5],> 50 µM
same,IC50,[3]; [6],> 50 µM
"[O-][S+](Cc1cccs1)C(c1ccccc1)c1ccccc1Br (stereo not drawn) [Compound 8g, 2-((((2-bromophenyl)(phenyl)methyl)sulfinyl)methyl)thiophene]",IC50,[1]; [7],> 50 µM
same,IC50,[2]; [5],5.06 ± 0.31 µM
same,IC50,[3]; [8],> 50 µM
"[O-][S@+](Cc1cccs1)[C@H](c1ccccc1)c1ccccc1Cl [Compound 5d, (R,R)-2-((((2-chlorophenyl)(phenyl)methyl)sulfinyl)methyl)thiophene]","activity on SERT (reuptake inhibition), in words",[1]; [9],did not achieve ≥50% of radioligand displacement
same,IC50,[1]; [10],> 50 µM
same,"activity on DAT (reuptake inhibition), in words",[2],did not achieve ≥50% of radioligand displacement
same,IC50,[2]; [11],> 50 µM
same,"activity on NET (reuptake inhibition), in words",[3]; [9],did not achieve ≥50% of radioligand displacement
same,IC50,[3]; [12],> 50 µM
"COc1ccc([C@H](c2ccccc2)[S@+]([O-])Cc2cccs2)cc1 [Compound 8t, (R,S)-2-((((4-methoxyphenyl)(phenyl)methyl)sulfinyl)methyl)thiophene]",IC50,[1]; [4],> 50 µM
same,IC50,[2]; [5],> 50 µM
same,IC50,[3]; [6],> 50 µM
"COc1ccc([C@@H](c2ccccc2)[S@+]([O-])Cc2cccs2)cc1 [Compound 6t, (R,R)-2-((((4-methoxyphenyl)(phenyl)methyl)sulfinyl)methyl)thiophene]",IC50,[1]; [4],11 ± 3 µM
same,IC50,[2]; [5],17 ± 3 µM
same,IC50,[3]; [6],> 50 µM
"[O-][S+](Cc1cccs1)C(c1ccccc1)c1ccc(F)cc1 (stereo not drawn) [Compound 6c, 2-((((4-fluorophenyl)(phenyl)methyl)sulfinyl)methyl)thiophene]",IC50,[1]; [10],> 50 µM
same,IC50,[2]; [11],10.1 ± 0.3 µM
same,IC50,[3]; [12],> 50 µM
"[O-][S+](Cc1cccs1)C(c1ccccc1)c1ccccc1I (stereo not drawn) [Compound 8i, 2-((((2-iodophenyl)(phenyl)methyl)sulfinyl)methyl)thiophene]",IC50,[1]; [7],> 50 µM
same,IC50,[2]; [5],9.6 ± 1.2 µM
same,IC50,[3]; [8],> 50 µM
"[O-][S+](Cc1cccs1)C(c1ccccc1)c1ccccc1I (stereo not drawn) [Compound 5i, 2-((((2-iodophenyl)(phenyl)methyl)sulfinyl)methyl)thiophene]",IC50,[1]; [4],> 50 µM
same,IC50,[2]; [5],> 50 µM
same,IC50,[3]; [6],> 50 µM
"[O-][S+](Cc1cccs1)C(c1ccccc1)c1ccccc1C(F)(F)F (stereo not drawn) [Compound 5o, 2-(((phenyl(2-(trifluoromethyl)phenyl)methyl)sulfinyl)methyl)thiophene]",IC50,[1]; [4],> 50 µM
same,IC50,[2]; [5],> 50 µM
same,IC50,[3]; [6],25 ± 1 µM
"[O-][S+](Cc1cccs1)C(c1ccccc1)c1ccccc1Br (stereo not drawn) [Compound 7g, 2-((((2-bromophenyl)(phenyl)methyl)sulfinyl)methyl)thiophene]","activity on SERT (reuptake inhibition), in words",[1]; [9],no effect
same,IC50,[1]; [7],> 50 µM
same,IC50,[2]; [5],> 50 µM
same,"activity on DAT (reuptake inhibition), in words",[2],no effect
same,"activity on NET (reuptake inhibition), in words",[3]; [9],no effect
same,IC50,[3]; [8],> 50 µM
"[O-][S+](Cc1cccs1)C(c1ccccc1)c1ccc(C(F)(F)F)cc1 (stereo not drawn) [Compound 6q, 2-(((phenyl(4-(trifluoromethyl)phenyl)methyl)sulfinyl)methyl)thiophene]",IC50,[1]; [4],> 50 µM
same,IC50,[2]; [5],40 ± 9 µM
same,IC50,[3]; [8],> 50 µM
"[O-][S@+](Cc1cccs1)[C@@H](c1ccccc1)c1ccccc1Cl [Compound 7d, (R,S)-2-((((2-chlorophenyl)(phenyl)methyl)sulfinyl)methyl)thiophene]","activity on SERT (reuptake inhibition), in words",[1]; [9],did not achieve ≥50% of radioligand displacement
same,IC50,[1]; [10],> 50 µM
same,"activity on DAT (reuptake inhibition), in words",[2],did not achieve ≥50% of radioligand displacement
same,IC50,[2]; [11],> 50 µM
same,"activity on NET (reuptake inhibition), in words",[3]; [9],did not achieve ≥50% of radioligand displacement
same,IC50,[3]; [12],> 50 µM
"[O-][S@@+](Cc1cccs1)[C@H](c1ccccc1)c1ccc(Cl)cc1 [Compound 5f, (S,R)-2-((((4-chlorophenyl)(phenyl)methyl)sulfinyl)methyl)thiophene]",IC50,[1]; [4],> 50 µM
same,IC50,[2]; [5],12 ± 1 µM
same,IC50,[3]; [6],> 50 µM
"[O-][S+](Cc1cccs1)C(c1ccccc1)c1ccccc1C(F)(F)F (stereo not drawn) [Compound 8o, 2-(((phenyl(2-(trifluoromethyl)phenyl)methyl)sulfinyl)methyl)thiophene]",IC50,[1]; [7],> 50 µM
same,IC50,[2]; [5],8.9 ± 0.7 µM
same,IC50,[3]; [6],> 50 µM
"[O-][S@+](Cc1cccs1)[C@H](c1ccccc1)c1cccc(Cl)c1 [Compound 8e, (R,R)-2-((((3-chlorophenyl)(phenyl)methyl)sulfinyl)methyl)thiophene]",IC50,[1]; [4],19 ± 1 µM
same,IC50,[2]; [5],0.83 ± 0.16 µM
same,IC50,[3]; [6],48 ± 6 µM
"COc1ccccc1[C@@H](c1ccccc1)[S@@+]([O-])Cc1cccs1 [Compound 7r, (S,R)-2-((((2-methoxyphenyl)(phenyl)methyl)sulfinyl)methyl)thiophene]",IC50,[1]; [4],> 50 µM
same,IC50,[2]; [5],1.7 ± 0.1 µM
same,IC50,[3]; [6],> 50 µM
"Cc1ccccc1C(c1ccccc1)[S+]([O-])Cc1cccs1 (stereo not drawn) [Compound 6l, 2-(((phenyl(o-tolyl)methyl)sulfinyl)methyl)thiophene]",IC50,[1]; [10],> 50 µM
same,IC50,[2]; [11],> 50 µM
same,IC50,[3]; [12],> 50 µM
"[O-][S+](Cc1cccs1)C(c1ccccc1)c1ccc(F)cc1 (stereo not drawn) [Compound 5c, 2-((((4-fluorophenyl)(phenyl)methyl)sulfinyl)methyl)thiophene]",IC50,[1]; [10],> 50 µM
same,IC50,[2]; [11],7.8 ± 0.7 µM
same,IC50,[3]; [12],> 50 µM
"[O-][S+](Cc1cccs1)C(c1ccccc1)c1ccccc1Br (stereo not drawn) [Compound 5g, 2-((((2-bromophenyl)(phenyl)methyl)sulfinyl)methyl)thiophene]",IC50,[1]; [4],> 50 µM
same,"activity on SERT (reuptake inhibition), in words",[1]; [9],no effect
same,IC50,[2]; [5],> 50 µM
same,"activity on DAT (reuptake inhibition), in words",[2],no effect
same,IC50,[3]; [6],> 50 µM
same,"activity on NET (reuptake inhibition), in words",[3]; [9],no effect
"Cc1ccc(C(c2ccccc2)[S+]([O-])Cc2cccs2)cc1 (stereo not drawn) [Compound 6n, 2-(((phenyl(p-tolyl)methyl)sulfinyl)methyl)thiophene]",IC50,[1]; [10],> 50 µM
same,IC50,[2]; [11],> 50 µM
same,IC50,[3]; [8],> 50 µM
"[O-][S@+](Cc1cccs1)[C@H](c1ccccc1)c1ccc(Cl)cc1 [Compound 8f, (R,R)-2-((((4-chlorophenyl)(phenyl)methyl)sulfinyl)methyl)thiophene]",IC50,[1]; [4],> 50 µM
same,IC50,[2]; [5],4.9 ± 0.6 µM
same,IC50,[3]; [6],> 50 µM
"[O-][S+](Cc1cccs1)C(c1ccccc1)c1ccccc1I (stereo not drawn) [Compound 6i, 2-((((2-iodophenyl)(phenyl)methyl)sulfinyl)methyl)thiophene]",IC50,[1]; [7],> 50 µM
same,IC50,[2]; [5],20.3 ± 0.6 µM
same,IC50,[3]; [8],> 50 µM
"[O-][S+](Cc1cccs1)C(c1ccccc1)c1cccc(F)c1 (stereo not drawn) [Compound 5b, 2-((((3-fluorophenyl)(phenyl)methyl)sulfinyl)methyl)thiophene]",IC50,[1]; [10],> 50 µM
same,IC50,[2]; [11],3.2 ± 0.4 µM
same,IC50,[3]; [12],> 50 µM
"[O-][S@@+](Cc1cccs1)[C@@H](c1ccccc1)c1ccc(Cl)cc1 [Compound 7f, (S,S)-2-((((4-chlorophenyl)(phenyl)methyl)sulfinyl)methyl)thiophene]",IC50,[1]; [4],> 50 µM
same,IC50,[2]; [5],4 ± 1 µM
same,IC50,[3]; [6],> 50 µM
"[O-][S+](Cc1cccs1)C(c1ccccc1)c1ccc(C(F)(F)F)cc1 (stereo not drawn) [Compound 7q, 2-(((phenyl(4-(trifluoromethyl)phenyl)methyl)sulfinyl)methyl)thiophene]",IC50,[1]; [4],> 50 µM
same,IC50,[2]; [5],24 ± 1 µM
same,IC50,[3]; [8],> 50 µM
"[O-][S@@+](Cc1cccs1)[C@H](c1ccccc1)c1ccccc1Cl [Compound 8d, (S,R)-2-((((2-chlorophenyl)(phenyl)methyl)sulfinyl)methyl)thiophene]",IC50,[1]; [10],> 50 µM
same,IC50,[2]; [11],2.55 ± 0.04 µM
same,IC50,[3]; [12],> 50 µM
